Data as given in BindingDB's records for doi:10.1016/j.bmcl.2003.09.094 (Cv Therapeutics, 2003).

These molecules were tested against Adenosine receptor A1 (hamster) (assay: Binding affinity for adenosine A1 receptor determined using hamster DDT1 cell membranes with [3H]CCPA as radioligand).

SMILES	Ki
C=CCNC(=S)OC[C@H]1OC(n2cnc3c(NC4CCOC4)ncnc32)[C@H](O)[C@@H]1O (stereo partly drawn) [Allyl-thiocarbamic acid (2R,3S,4R)-3,4-dihydroxy-5-{6-[(R)-(tetrahydro-furan-3-yl)amino]-purin-9-yl}-tetrahydro-furan-2-ylmethyl ester]	35 nM
O=C(NCc1ccccc1)OC[C@H]1OC(n2cnc3c(NC4CCOC4)ncnc32)[C@H](O)[C@@H]1O (stereo partly drawn) [Benzyl-carbamic acid (2R,3S,4R)-3,4-dihydroxy-5-{6-[(R)-(tetrahydro-furan-3-yl)amino]-purin-9-yl}-tetrahydro-furan-2-ylmethyl ester]	1830 nM
CCCCNC(=O)OC[C@H]1OC(n2cnc3c(NC4CCOC4)ncnc32)[C@H](O)[C@@H]1O (stereo partly drawn) [Butyl-carbamic acid (2R,3S,4R)-3,4-dihydroxy-5-{6-[(R)-(tetrahydro-furan-3-yl)amino]-purin-9-yl}-tetrahydro-furan-2-ylmethyl ester]	1410 nM
CCCCNC(=S)OC[C@H]1OC(n2cnc3c(NC4CCOC4)ncnc32)[C@H](O)[C@@H]1O (stereo partly drawn) [Butyl-thiocarbamic acid (2R,3S,4R)-3,4-dihydroxy-5-{6-[(R)-(tetrahydro-furan-3-yl)amino]-purin-9-yl}-tetrahydro-furan-2-ylmethyl ester]	157 nM
O=C(NC1CCCCC1)OC[C@H]1OC(n2cnc3c(NC4CCOC4)ncnc32)[C@H](O)[C@@H]1O (stereo partly drawn) [Cyclohexyl-carbamic acid (2R,3S,4R)-3,4-dihydroxy-5-{6-[(R)-(tetrahydro-furan-3-yl)amino]-purin-9-yl}-tetrahydro-furan-2-ylmethyl ester]	584 nM
O[C@@H]1[C@@H](COC(=S)NC2CCCCC2)OC(n2cnc3c(NC4CCOC4)ncnc32)[C@@H]1O (stereo partly drawn) [Cyclohexyl-thiocarbamic acid (2R,3S,4R)-3,4-dihydroxy-5-{6-[(R)-(tetrahydro-furan-3-yl)amino]-purin-9-yl}-tetrahydro-furan-2-ylmethyl ester]	253 nM
O=C(NC1CCCC1)OC[C@H]1OC(n2cnc3c(NC4CCOC4)nc(Cl)nc32)[C@H](O)[C@@H]1O (stereo partly drawn) [Cyclopentyl-carbamic acid (2R,3S,4R)-5-{2-chloro-6-[(R)-(tetrahydro-furan-3-yl)amino]-purin-9-yl}-3,4-dihydroxy-tetrahydro-furan-2-ylmethyl ester]	226 nM
O[C@@H]1[C@@H](COC(=S)NC2CCCC2)OC(n2cnc3c(NC4CCOC4)ncnc32)[C@@H]1O (stereo partly drawn) [Cyclopentyl-thiocarbamic acid (2R,3S,4R)-3,4-dihydroxy-5-{6-[(R)-(tetrahydro-furan-3-yl)amino]-purin-9-yl}-tetrahydro-furan-2-ylmethyl ester]	72 nM
O=C(NC1CC1)OC[C@H]1OC(n2cnc3c(NC4CCOC4)ncnc32)[C@H](O)[C@@H]1O (stereo partly drawn) [Cyclopropyl-carbamic acid (2R,3S,4R)-3,4-dihydroxy-5-{6-[(R)-(tetrahydro-furan-3-yl)amino]-purin-9-yl}-tetrahydro-furan-2-ylmethyl ester]	209 nM
CCNC(=S)OC[C@H]1OC(n2cnc3c(NC4CCOC4)ncnc32)[C@H](O)[C@@H]1O (stereo partly drawn) [Ethyl-thiocarbamic acid (2R,3S,4R)-3,4-dihydroxy-5-{6-[(R)-(tetrahydro-furan-3-yl)amino]-purin-9-yl}-tetrahydro-furan-2-ylmethyl ester]	33 nM
CCNC(=S)OC[C@H]1OC(n2cnc3c(NC4CCOC4)nc(Cl)nc32)[C@H](O)[C@@H]1O (stereo partly drawn) [Ethyl-thiocarbamic acid (2R,3S,4R)-5-{2-chloro-6-[(R)-(tetrahydro-furan-3-yl)amino]-purin-9-yl}-3,4-dihydroxy-tetrahydro-furan-2-ylmethyl ester]	55 nM
CC(C)NC(=O)OC[C@H]1OC(n2cnc3c(NC4CCOC4)ncnc32)[C@H](O)[C@@H]1O (stereo partly drawn) [Isopropyl-carbamic acid (2R,3S,4R)-3,4-dihydroxy-5-{6-[(R)-(tetrahydro-furan-3-yl)amino]-purin-9-yl}-tetrahydro-furan-2-ylmethyl ester]	78 nM
CC(C)NC(=S)OC[C@H]1OC(n2cnc3c(NC4CCOC4)ncnc32)[C@H](O)[C@@H]1O (stereo partly drawn) [Isopropyl-thiocarbamic acid (2R,3S,4R)-3,4-dihydroxy-5-{6-[(R)-(tetrahydro-furan-3-yl)amino]-purin-9-yl}-tetrahydro-furan-2-ylmethyl ester]	36 nM
CNC(=S)OC[C@H]1OC(n2cnc3c(NC4CCOC4)ncnc32)[C@H](O)[C@@H]1O (stereo partly drawn) [Methyl-thiocarbamic acid (2R,3S,4R)-3,4-dihydroxy-5-{6-[(R)-(tetrahydro-furan-3-yl)amino]-purin-9-yl}-tetrahydro-furan-2-ylmethyl ester]	45 nM
CNC(=S)OC[C@H]1OC(n2cnc3c(NC4CCOC4)nc(Cl)nc32)[C@H](O)[C@@H]1O (stereo partly drawn) [Methyl-thiocarbamic acid (2R,3S,4R)-5-{2-chloro-6-[(R)-(tetrahydro-furan-3-yl)amino]-purin-9-yl}-3,4-dihydroxy-tetrahydro-furan-2-ylmethyl ester]	71 nM
CCCNC(=O)OC[C@H]1OC(n2cnc3c(NC4CCOC4)ncnc32)[C@H](O)[C@@H]1O (stereo partly drawn) [Propyl-carbamic acid (2R,3S,4R)-3,4-dihydroxy-5-{6-[(R)-(tetrahydro-furan-3-yl)amino]-purin-9-yl}-tetrahydro-furan-2-ylmethyl ester]	235 nM

Now from value to molecule:

Ki	SMILES
524 nM	C=CCNC(=O)OC[C@H]1OC(n2cnc3c(NC4CCOC4)ncnc32)[C@H](O)[C@@H]1O (stereo partly drawn) [Allyl-carbamic acid (2R,3S,4R)-3,4-dihydroxy-5-{6-[(R)-(tetrahydro-furan-3-yl)amino]-purin-9-yl}-tetrahydro-furan-2-ylmethyl ester]
12 nM	O[C@@H]1[C@@H](COC(=S)NCc2ccccc2)OC(n2cnc3c(NC4CCOC4)ncnc32)[C@@H]1O (stereo partly drawn) [Benzyl-thiocarbamic acid (2R,3S,4R)-3,4-dihydroxy-5-{6-[(R)-(tetrahydro-furan-3-yl)amino]-purin-9-yl}-tetrahydro-furan-2-ylmethyl ester]
306 nM	O=C(NC1CCC1)OC[C@H]1OC(n2cnc3c(NC4CCOC4)ncnc32)[C@H](O)[C@@H]1O (stereo partly drawn) [Cyclobutyl-carbamic acid (2R,3S,4R)-3,4-dihydroxy-5-{6-[(R)-(tetrahydro-furan-3-yl)amino]-purin-9-yl}-tetrahydro-furan-2-ylmethyl ester]
148 nM	O[C@@H]1[C@@H](COC(=S)NC2CCC2)OC(n2cnc3c(NC4CCOC4)ncnc32)[C@@H]1O (stereo partly drawn) [Cyclobutyl-thiocarbamic acid (2R,3S,4R)-3,4-dihydroxy-5-{6-[(R)-(tetrahydro-furan-3-yl)amino]-purin-9-yl}-tetrahydro-furan-2-ylmethyl ester]
157 nM	O[C@@H]1[C@@H](COC(=S)NC2CC2)OC(n2cnc3c(NC4CCOC4)ncnc32)[C@@H]1O (stereo partly drawn) [Cyclopropyl-thiocarbamic acid (2R,3S,4R)-3,4-dihydroxy-5-{6-[(R)-(tetrahydro-furan-3-yl)amino]-purin-9-yl}-tetrahydro-furan-2-ylmethyl ester]
238 nM	CN(C)C(=O)OC[C@H]1OC(n2cnc3c(NC4CCOC4)ncnc32)[C@H](O)[C@@H]1O (stereo partly drawn) [Dimethyl-carbamic acid (2R,3S,4R)-3,4-dihydroxy-5-{6-[(R)-(tetrahydro-furan-3-yl)amino]-purin-9-yl}-tetrahydro-furan-2-ylmethyl ester]
205 nM	CN(C)C(=S)OC[C@H]1OC(n2cnc3c(NC4CCOC4)ncnc32)[C@H](O)[C@@H]1O (stereo partly drawn) [Dimethyl-thiocarbamic acid (2R,3S,4R)-3,4-dihydroxy-5-{6-[(R)-(tetrahydro-furan-3-yl)amino]-purin-9-yl}-tetrahydro-furan-2-ylmethyl ester]
167 nM	CCNC(=O)OC[C@H]1OC(n2cnc3c(NC4CCOC4)ncnc32)[C@H](O)[C@@H]1O (stereo partly drawn) [Ethyl-carbamic acid (2R,3S,4R)-3,4-dihydroxy-5-{6-[(R)-(tetrahydro-furan-3-yl)amino]-purin-9-yl}-tetrahydro-furan-2-ylmethyl ester]
96 nM	CNC(=O)OC[C@H]1OC(n2cnc3c(NC4CCOC4)nc(Cl)nc32)[C@H](O)[C@@H]1O (stereo partly drawn) [Methyl-carbamic acid (2R,3S,4R)-5-{2-chloro-6-[(R)-(tetrahydro-furan-3-yl)amino]-purin-9-yl}-3,4-dihydroxy-tetrahydro-furan-2-ylmethyl ester]
50 nM	CCCNC(=S)OC[C@H]1OC(n2cnc3c(NC4CCOC4)ncnc32)[C@H](O)[C@@H]1O (stereo partly drawn) [Propyl-thiocarbamic acid (2R,3S,4R)-3,4-dihydroxy-5-{6-[(R)-(tetrahydro-furan-3-yl)amino]-purin-9-yl}-tetrahydro-furan-2-ylmethyl ester]
